Our source for the IC50 and viability values is ChEMBL document CHEMBL2062480, “Semi-synthesis and anti-tumor evaluation of novel 25-hydroxyprotopanaxadiol derivatives” (Eur J Med Chem, 2012).

The test system of experiment [1] is MCF7. As to the kind of experiment: Antiproliferative activity against human MCF7 cells after 48 hrs by MTT assay. Format: functional, cell-based. The note with it: MCF7, 48 h. A general note: Formazan colour is commonly taken as a measure of viable cells.
For another experiment, the system named is A549. The experiment in a line: Antiproliferative activity against human A549 cells after 48 hrs by MTT assay. To be noted: A549, 48 h. Type of experiment: functional, cell-based.
For a further experiment, the system named is LoVo. The experiment in a line: Antiproliferative activity against human LoVo cells after 48 hrs by MTT assay. Type of experiment: functional, cell-based.
The nature of experiment [2]: Antiproliferative activity against human IOSE-144 cells after 48 hrs by MTT assay. Type of experiment: cell-based. To be noted: IOSE-144, 48 h.
The test system of experiment [3] is MCF7. The experiment in a line: Antiproliferative activity against human MCF7 cells assessed as cell viability at 30 uM after 48 hrs by MTT assay. The note with it: MCF7, 48 h, read-out: Activity. Type of experiment: functional.

For orientation: pIC50 means −log10 of the IC50, conventionally taken in molar units. Read a high pIC50 as a small IC50.

pIC50: −log10 of the molar value.

On to `CC(=O)O[C@@H]1C[C@@H]2[C@@]3(C)CC[C@H](O)C(C)(C)[C@@H]3CC[C@@]2(C)[C@]2(C)CC[C@H]([C@](C)(O)CCCC(C)(C)O)[C@@H]12`, for which the pIC50 is 4.82 with MCF7 [1], 4.98 in the experiment on A549, 4.43 in the experiment with LoVo and under 4.00 in experiment [2]. Besides, the viability at 30 µM in the experiment on MCF7 [3] was 13.2%.
On the same counts, the results for `O=c1[nH]cc(F)c(=O)[nH]1` [FLUOROURACIL] are 4.79, 4.89, 5.48, 4.59 and 42.5%.
On the same counts, the results for `CC(C)(O)CCC[C@@](C)(O)[C@H]1CC[C@]2(C)[C@@H]1[C@H](OC=O)C[C@@H]1[C@@]3(C)CC[C@H](OC=O)C(C)(C)[C@@H]3CC[C@]12C` are 5.96, 4.90, 4.31, under 4.00 and 10.6%.
On the same counts, the results for `CCC(=O)O[C@@H]1C[C@@H]2[C@@]3(C)CC[C@H](O)C(C)(C)[C@@H]3CC[C@@]2(C)[C@]2(C)CC[C@H]([C@](C)(O)CCCC(C)(C)O)[C@@H]12` are 4.98, 4.75, 4.39, under 4.00 and 17.1%.
On to `CC(C)(O)CCC[C@@](C)(O)[C@H]1CC[C@]2(C)[C@@H]1[C@H](OC=O)C[C@@H]1[C@@]3(C)CC[C@H](O)C(C)(C)[C@@H]3CC[C@]12C`, for which the pIC50 was 4.94 with MCF7 [1], 4.80 with A549, 4.30 in the experiment with LoVo and under 4.00 in experiment [2]. Moreover, the viability at 30 µM in the experiment on MCF7 [3] turned out to be 15.1%.
